Values quoted from earlier work, collected in US9540416B2, “Purification process” (GLAXOSMITHKLINE BIOLOGICALS S.A., priority 2012, dated 2017).
“Also recorded” adds a separate entry of the source.

Legend:
[1] = relative to other Quillaja saponins
mice and other mammals = settings: in mice and other mammals

Substance	toxicity [1]	adjuvant activity (mice and other mammals)
QS-18	more toxic at lower doses than other Quillaja saponins	significant adjuvant activity
QS-21	low toxicity	significant adjuvant activity; also recorded: strong adjuvant activity
QS-17	–	significant adjuvant activity
